Data on twelve compounds can be found in US11643411B2 (priority 2015, dated 2023).

One series deals with T1, human opioid μ receptor (Homo sapiens, UniProt P35372).
T1 construct: host or cells: CHO cells
The series is described as follows: Opioid receptor function test (Lance Ultra cAMP Kit), μ receptor. It counts as cell-based.

The target of the next series is T2, hERG channel (Homo sapiens, UniProt Q12809).
T2 construct: host or cells: CHO cells
The series is described as follows: hERG potassium channel inhibition test (automatic patch clamp). The class given is cell-based. To be noted: 10 μM, hERG channel-stably expressing CHO cells, tail current. The method, then: The test was performed with Port-a-Patch automatic patch clump apparatus (Nanion Technologies) using hERG channel-stably expressing CHO cells (purchased from Channelopathy Foundation). The membrane potential of the cells was maintained at −80 mV, then there were applied a depolarization pulse at +20 mV for 1.5 seconds, and a following test pulse at −50 mV for 1.5 seconds at a frequency of 1 time per 10 seconds, and the hERG current was confirmed as a tail current induced by the test pulse. The test compound was dissolved in an extracellular fluid (137 mM NaCl, 4 mM KCl, 1.8 mM CaCl2, 1 mM MgCl2, 10 mM D(+)-glucose, 10 mM HEPES, pH 7.4), and the solution was refluxed at room temperature for 5 minutes. The inhibition ratio was obtained from the ratio of the tail current value observed after the compound was applied based on the tail current value observed before the compound was applied, which was taken as 100%.

A further series has as its system C57BL/6N male mice. The series is described as follows: Mouse elevated plus maze test. It counts as in vivo. To be noted: subcutaneous, dose not stated (FIGS. 3 to 5). On the procedure: For the test, 5 to 6 weeks old C57BL/6N male mice were used. On a plus maze apparatus consisting of a wall-less running route (open arm, width 6 cm, length 30 cm) and a running route with a wall (closed arm, width 6 cm, length 30 cm, height of wall 15 cm), and having a height of 40 cm, a mouse was put so as to be directed to the running route with a wall, and allowed to spontaneously enter into the plus maze. Each test substance was dissolved in saline or 0.005 N HCl in saline, and subcutaneously administered on the back 30 minutes before the start of the test. At the time of the start of the test, video recording with a video camera was started, the time at which the mouse entered into the plus maze is considered to be the start of the test, and exploratory behavior was recorded for 5 minutes. On the basis of the video image, staying time in the running routes were determined, and wall-less running route staying time ratio (%) was calculated.

For another series, the target named is T3, human opioid κ receptor (Homo sapiens, UniProt P41145).
T3 construct: host or cells: CHO cells
The series is described as follows: cell-based.

The test system of the next series is SD male rats. The series is described as follows: Rat cerebral infarction-induced overactive bladder model (cystometry). The class given is in vivo. On the procedure: A transient middle cerebral artery occlusion model was prepared by using 8 weeks old SD male rats under isoflurane inhalation anesthesia. On the next day, the cervix was slightly cut open again under the isoflurane inhalation anesthesia, and a catheter for administration was fixed in the jugular vein, and led to the back. A cystometry operation was also performed, and the other end of a cannula inserted into the bladder was led to the back, and connected to a cannula swivel.
On the day 4 after the cerebral ischemia operation, cystometry was performed under no anesthesia and with no restraint. Intravesical pressure was measured for the stable period, then a medium was intravenously administered, and the value of the pressure was measured over about 30 minutes as a value before test substance administration. Then, the test substance was cumulatively and intravenously administered from the lowest dose at intervals of about 30 minutes, and the value was measured for about 30 minutes after each administration. For the rats determined to show pollakiuria (urination interval was 10 minutes or shorter) in the measurement before the administration, static intravesical pressure, pressure at the time of urination, urination interval, and single urination amount were measured at each time point.

In a further series the test system is OBX rats. As to the kind of experiment: Hyperemotional reaction inhibition test using olfactory bulbectomized (OBX) rat. It counts as in vivo. The method, then:
According to the method of Saitoh et al. (Saitoh A, Yamada M, Yamada M, Takahashi K, Yamaguchi K, Murasawa H, Nakatani A, Tatsumi Y, Hirose N, and Kamei J: Antidepressant-like effects of the delta-opioid receptor agonist SNC80 ((+)-4-[(alphaR)-alpha-[(2S,5R)-2,5-dimethyl-4-(2-propenyl)-1-piperazinyl]-(3-methoxyphenyl)methyl]-N,N-diethylbenzamide) in an olfactory bulbectomized rat model, Brain Res., 2008, 1208160-169), OBX rats were prepared by extracting the rat olfactory bulbs, and then breeding the rats in an isolated circumstance. Hyperemotional reaction was evaluated on the day 14 after the surgical operation and before the division into groups, and 2 hours after the administration on the days 1, 4, 7, 10, and 14 of the administration period according to the hyperemotional reaction evaluation criteria prepared by Gomita et al. (Gomita et al., Behavioral pharmacological and electroencephalographical studies of 7-chloro-1-methyl-5-phenyl-1H-1,5-benzodiazepine-2,4-(3H,5H:)-dione (Clobazam), Folia Pharmacologica Japonica, 82, 267 (1983)). The drug was subcutaneously administered once a day continuously over 14 days. As a positive control drug, fluoxetine, which is a selective serotonin reuptake inhibitor (SSRI), was used. As the solvent, a 1% cyclodextrin (CD) was used.

Where [1] appears, read: read-out: μ receptor Emax, starred: reaction rate at the maximum concentration (reference value).
Where [2] appears, read: read-out: κ receptor Emax, starred: reaction rate at the maximum concentration (reference value).

Counter-ions that a name gives are not always drawn. Like-named read-outs stand apart in the source and are kept apart here. Marks after values point to notes of the source that are not given here. Where only a bound is given, the exact number is not on record here.

T2 sequence (Q12809 whole entry): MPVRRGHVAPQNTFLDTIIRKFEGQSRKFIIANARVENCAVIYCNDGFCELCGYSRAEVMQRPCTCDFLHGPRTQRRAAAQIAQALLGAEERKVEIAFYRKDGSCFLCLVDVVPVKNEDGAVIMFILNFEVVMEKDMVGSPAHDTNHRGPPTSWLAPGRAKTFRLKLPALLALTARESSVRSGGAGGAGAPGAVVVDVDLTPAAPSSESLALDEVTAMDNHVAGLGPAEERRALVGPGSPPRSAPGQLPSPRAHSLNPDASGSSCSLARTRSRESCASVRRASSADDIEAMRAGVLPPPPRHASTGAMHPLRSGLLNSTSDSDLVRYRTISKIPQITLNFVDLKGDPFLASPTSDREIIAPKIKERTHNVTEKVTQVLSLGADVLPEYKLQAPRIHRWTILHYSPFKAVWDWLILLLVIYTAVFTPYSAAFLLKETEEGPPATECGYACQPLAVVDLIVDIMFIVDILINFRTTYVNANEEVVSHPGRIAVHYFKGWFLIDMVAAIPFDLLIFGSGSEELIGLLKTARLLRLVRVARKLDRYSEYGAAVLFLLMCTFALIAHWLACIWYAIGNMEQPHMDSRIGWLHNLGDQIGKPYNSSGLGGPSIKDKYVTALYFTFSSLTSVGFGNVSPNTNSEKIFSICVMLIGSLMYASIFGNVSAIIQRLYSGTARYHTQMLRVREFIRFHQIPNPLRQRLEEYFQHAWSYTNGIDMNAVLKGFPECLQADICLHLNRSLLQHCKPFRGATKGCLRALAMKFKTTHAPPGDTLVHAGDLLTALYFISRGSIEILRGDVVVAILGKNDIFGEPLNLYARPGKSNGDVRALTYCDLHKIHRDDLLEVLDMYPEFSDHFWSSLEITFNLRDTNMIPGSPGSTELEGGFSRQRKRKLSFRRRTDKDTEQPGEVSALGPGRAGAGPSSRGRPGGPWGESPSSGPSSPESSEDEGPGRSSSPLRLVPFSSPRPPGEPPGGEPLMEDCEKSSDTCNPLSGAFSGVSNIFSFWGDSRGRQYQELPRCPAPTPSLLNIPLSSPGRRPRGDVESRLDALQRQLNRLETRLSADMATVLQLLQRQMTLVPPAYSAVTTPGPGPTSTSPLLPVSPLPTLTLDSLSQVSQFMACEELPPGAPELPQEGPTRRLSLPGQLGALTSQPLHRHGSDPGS
T3 sequence (P41145 whole entry): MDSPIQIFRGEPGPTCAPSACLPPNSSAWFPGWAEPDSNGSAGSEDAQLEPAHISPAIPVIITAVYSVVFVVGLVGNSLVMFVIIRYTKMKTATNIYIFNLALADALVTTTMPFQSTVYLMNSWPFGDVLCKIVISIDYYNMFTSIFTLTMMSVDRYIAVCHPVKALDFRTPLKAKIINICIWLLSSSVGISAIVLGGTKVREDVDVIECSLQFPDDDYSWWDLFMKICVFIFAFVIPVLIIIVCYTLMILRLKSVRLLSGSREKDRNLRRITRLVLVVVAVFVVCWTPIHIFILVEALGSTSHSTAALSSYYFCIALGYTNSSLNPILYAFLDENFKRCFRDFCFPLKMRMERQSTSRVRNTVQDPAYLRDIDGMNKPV
T1 sequence (P35372 whole entry): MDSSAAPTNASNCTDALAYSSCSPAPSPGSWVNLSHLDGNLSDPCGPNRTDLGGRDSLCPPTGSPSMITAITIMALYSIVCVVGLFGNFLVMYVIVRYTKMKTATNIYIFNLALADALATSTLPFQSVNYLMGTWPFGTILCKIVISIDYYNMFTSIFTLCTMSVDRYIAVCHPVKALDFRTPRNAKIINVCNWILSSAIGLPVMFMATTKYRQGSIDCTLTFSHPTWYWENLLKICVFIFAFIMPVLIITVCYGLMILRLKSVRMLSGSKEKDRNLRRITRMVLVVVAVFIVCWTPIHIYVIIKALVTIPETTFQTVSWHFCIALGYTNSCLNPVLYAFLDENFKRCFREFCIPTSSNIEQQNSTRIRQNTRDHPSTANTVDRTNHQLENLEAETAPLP

As to `O=C(c1cccc[n+]1[O-])N1C[C@H]2C[C@@]34CC[C@@H]1[C@@H]2[C@@]31CCN(CC2CC2)[C@@H]4Cc2ccc(O)cc21` [Example 1, 2-((1S,3aR,5aS,6R,11bR,11cS)-14-(cyclopropylmethyl)-10-hydroxy-2,3,3a,4,5,6,7,11c-octahydro-1H-6,11b-(epiminoethano)-1,5a-methanonaphtho[1,2-e]indole-3-carbonyl)pyridine 1-oxide], the Emax at human opioid μ receptor (setting [1]) turned out to be 8.3%. Moreover, the “hERG channel inhibitory action” value on hERG channel is less than 50%.
Regarding `O=C(c1ccc[nH]c1=O)N1C[C@H]2C[C@@]34CC[C@@H]1[C@@H]2[C@@]31CCN(CC2CC2)[C@@H]4Cc2ccc(O)cc21` [Example 3, 3-((1S,3aR,5aS,6R,11bR,11cS)-14-(cyclopropylmethyl)-10-hydroxy-2,3,3a,4,5,6,7,11c-octahydro-1H-6,11b-(epiminoethano)-1,5a-methanonaphtho[1,2-e]indole-3-carbonyl)pyridin-2(1H)-one], the “hERG channel inhibitory action” value on hERG channel is less than 50%. Also, in the series with C57BL/6N male mice, the “wall-less running route staying time ratio” value is on record as “showed a tendency of increasing”.
For the compound `O=C(c1ccc[n+]([O-])c1)N1C[C@H]2C[C@@]34CC[C@@H]1[C@@H]2[C@@]31CCN(CC2CC2)[C@@H]4Cc2ccc(O)cc21` [Example 4, 3-((1S,3aR,5aS,6R,11bR,11cS)-14-(cyclopropylmethyl)-10-hydroxy-2,3,3a,4,5,6,7,11c-octahydro-1H-6,11b-(epiminoethano)-1,5a-methanonaphtho[1,2-e]indole-3-carbonyl)pyridine 1-oxide], the Emax on human opioid μ receptor (setting [1]) came to 5.5%.
For the compound `Cn1cccc(C(=O)N2C[C@H]3C[C@@]45CC[C@@H]2[C@@H]3[C@@]42CCN(CC3CC3)[C@@H]5Cc3ccc(O)cc32)c1=O` [Example 6, 3-((1S,3aR,5aS,6R,11bR,11cS)-14-(cyclopropylmethyl)-10-hydroxy-2,3,3a,4,5,6,7,11c-octahydro-1H-6,11b-(epiminoethano)-1,5a-methanonaphtho[1,2-e]indole-3-carbonyl)-1-methylpyridin-2(1H)-one], the Emax at human opioid κ receptor (setting [2]) is 3.2%.
For `O=C(c1cccc(=O)[nH]1)N1C[C@H]2C[C@@]34CC[C@@H]1[C@@H]2[C@@]31CCN(CC2CC2)[C@@H]4Cc2ccc(O)cc21` [Example 7, 6-((1S,3aR,5aS,6R,11bR,11cS)-14-(cyclopropylmethyl)-10-hydroxy-2,3,3a,4,5,6,7,11c-octahydro-1H-6,11b-(epiminoethano)-1,5a-methanonaphtho[1,2-e]indole-3-carbonyl)pyridin-2(1H)-one], in the series on SD male rats (0.01 and 0.1 mg/kg i.v.), the “single urination amount (in words)” value was “dose-dependently increasing tendency” and the “urination interval (in words)” value is on record as “dose-dependently increasing tendency”. In addition, in the series with SD male rats (at all the doses), the “pressure at the time of urination (in words)” value is “did not affect” and the “static intravesical pressure (in words)” value is given as “did not affect”. For the same compound, the “hyperemotional reactions compared with the sham surgery group” value in the series with OBX rats (0.1 mg/kg s.c. once a day, on the day 7 of the administration period) is on record as “restored the condition even to a level comparable to that of the rats of the sham surgery group”. The “hyperemotional reactions compared with the sham surgery group” value in the series on OBX rats (1 mg/kg s.c. once a day, on the day 4 of the administration period) is recorded as “restored the condition even to a level comparable to that of the rats of the sham surgery group”. The “hERG channel inhibitory action” value at hERG channel is less than 50%. Besides, the Emax on human opioid κ receptor (setting [2]) was -0.9%.
As for `Cn1cc(C(=O)N2C[C@H]3C[C@@]45CC[C@@H]2[C@@H]3[C@@]42CCN(CC3CC3)[C@@H]5Cc3ccc(O)cc32)ccc1=O` [Example 9, 5-((1S,3aR,5aS,6R,11bR,11cS)-14-(cyclopropylmethyl)-10-hydroxy-2,3,3a,4,5,6,7,11c-octahydro-1H-6,11b-(epiminoethano)-1,5a-methanonaphtho[1,2-e]indole-3-carbonyl)-1-methylpyridin-2(1H)-one], the Emax at human opioid μ receptor (ratio to maximum reaction of control drug DAMGO taken as 100%, read-out: μ receptor Emax) was 16%. For the same compound, on hERG channel, the “hERG channel inhibitory action” value is recorded as less than 50%. Also, the “wall-less running route staying time ratio” value with C57BL/6N male mice is on record as “showed a tendency of increasing”.
For the compound `Cn1c(C(=O)N2C[C@H]3C[C@@]45CC[C@@H]2[C@@H]3[C@@]42CCN(CC3CC3)[C@@H]5Cc3ccc(O)cc32)cccc1=O` [Example 10, 6-((1S,3aR,5aS,6R,11bR,11cS)-14-(cyclopropylmethyl)-10-hydroxy-2,3,3a,4,5,6,7,11c-octahydro-1H-6,11b-(epiminoethano)-1,5a-methanonaphtho[1,2-e]indole-3-carbonyl)-1-methylpyridin-2(1H)-one], the Emax at human opioid μ receptor (setting [1]) was 6%; at human opioid κ receptor (setting [2]), -0.7%. Also, the “hERG channel inhibitory action” value at hERG channel was less than 50%. In addition, the “wall-less running route staying time ratio” value in the series on C57BL/6N male mice is recorded as “showed a tendency of increasing”.
In the case of `O=C(c1cc[nH]c(=O)c1)N1C[C@H]2C[C@@]34CC[C@@H]1[C@@H]2[C@@]31CCN(CC2CC2)[C@@H]4Cc2ccc(O)cc21` [Example 11, 4-((1S,3aR,5aS,6R,11bR,11cS)-14-(cyclopropylmethyl)-10-hydroxy-2,3,3a,4,5,6,7,11c-octahydro-1H-6,11b-(epiminoethano)-1,5a-methanonaphtho[1,2-e]indole-3-carbonyl)pyridin-2(1H)-one], the Emax at human opioid κ receptor (setting [2]) is -2.5%.
Same read-out and setting: with `O=C(c1cc(=O)cc[nH]1)N1C[C@H]2C[C@@]34CC[C@@H]1[C@@H]2[C@@]31CCN(CC2CC2)[C@@H]4Cc2ccc(O)cc21` [Example 14, 2-((1S,3aR,5aS,6R,11bR,11cS)-14-(cyclopropylmethyl)-10-hydroxy-2,3,3a,4,5,6,7,11c-octahydro-1H-6,11b-(epiminoethano)-1,5a-methanonaphtho[1,2-e]indole-3-carbonyl)pyridin-4(1H)-one] the figure was 6.7%.
The same measure, in the same setting: under `O=C(c1cc(=O)cco1)N1C[C@H]2C[C@@]34CC[C@@H]1[C@@H]2[C@@]31CCN(CC2CC2)[C@@H]4Cc2ccc(O)cc21` [Example 19, 2-((1S,3aR,5aS,6R,11bR,11cS)-14-(cyclopropylmethyl)-10-hydroxy-2,3,3a,4,5,6,7,11c-octahydro-1H-6,11b-(epiminoethano)-1,5a-methanonaphtho[1,2-e]indole-3-carbonyl)-4H-pyran-4-one] stands 0.6%.
Turning to `CCn1cc(C(=O)N2C[C@H]3C[C@@]45CC[C@@H]2[C@@H]3[C@@]42CCN(CC3CC3)[C@@H]5Cc3ccc(O)cc32)ccc1=O` [Example 28, 5-((1S,3aR,5aS,6R,11bR,11cS)-14-(cyclopropylmethyl)-10-hydroxy-2,3,3a,4,5,6,7,11c-octahydro-1H-6,11b-(epiminoethano)-1,5a-methanonaphtho[1,2-e]indole-3-carbonyl)-1-ethylpyridin-2(1H)-one], on human opioid κ receptor (read-out: κ receptor Emax), the Emax was 13%.
Turning to `Cn1cccc(C(=O)N2C[C@H]3C[C@@]45CC[C@@H]2[C@@H]3[C@@]42CCN(CC3CC3)[C@@H]5Cc3ccc(O)cc32)c1=O` [Example 31, 3-((1S,3aR,5aS,6R,11bR,11cS)-14-(cyclopropylmethyl)-10-hydroxy-2,3,3a,4,5,6,7,11c-octahydro-1H-6,11b-(epiminoethano)-1,5a-methanonaphtho[1,2-e]indole-3-carbonyl)-1-methylpyridin-2(1H)-one hydrochloride], the Emax on human opioid κ receptor (maximum reaction not reached, at maximum concentration (10 μM), U-69593 = 100%) is 3.2* %.
